Experimental data reported in ChEMBL document CHEMBL1201862, “PubChem BioAssay data set” (2004).
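Five compound concentrations were applied to cells in 96-well plates for 48 hours; endpoints were derived by simple linear interpolation of the resulting dose-response curve. GI50 is the concentration that inhibits growth by half.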 Active and inactive are the calls of the source. Cut-off read from the data, not from the text of the source: active = GI50 up to about 1.1 µM and inactive = higher.

Assays:
Test in all cases: NCI tumour cell line growth inhibition, 48 h
IGROV-1 = test system: IGROV-1
CAKI-1 = test system: CAKI-1
SN12C = test system: SN12C
SW-620 = test system: SW-620
U-251 = test system: U-251
SF-268 = test system: SF-268
EKVX = test system: EKVX
LOX IMVI = test system: LOX IMVI
HL-60 = test system: HL-60
K562 = test system: K562
OVCAR-3 = test system: OVCAR-3
OVCAR-5 = test system: OVCAR-5
MCF7 = test system: MCF7
OVCAR-8 = test system: OVCAR-8
HCT-116 = test system: HCT-116
A549 = test system: A549
Hs-578T = test system: Hs-578T
BT-549 = test system: BT-549
RXF 393 = test system: RXF 393
786-0 = test system: 786-0
SF-295 = test system: SF-295
Malme-3M = test system: Malme-3M
SNB-19 = test system: SNB-19
PC-3 = test system: PC-3
HCT-15 = test system: HCT-15
KM12 = test system: KM12
MDA-MB-231 = test system: MDA-MB-231
CCRF-CEM = test system: CCRF-CEM
DU-145 = test system: DU-145
UACC-62 = test system: UACC-62
NCI-H460 = test system: NCI-H460
NCI-H522 = test system: NCI-H522
UO-31 = test system: UO-31
SK-OV-3 = test system: SK-OV-3
A498 = test system: A498
NCI-H23 = test system: NCI-H23
TK-10 = test system: TK-10
SNB-75 = test system: SNB-75
RPMI-8226 = test system: RPMI-8226
SF-539 = test system: SF-539
NCI/ADR-RES = test system: NCI/ADR-RES
ACHN = test system: ACHN
SK-MEL-5 = test system: SK-MEL-5
UACC-257 = test system: UACC-257
HOP-62 = test system: HOP-62
T47D = test system: T47D
MOLT-4 = test system: MOLT-4
MDA-MB-435 = test system: MDA-MB-435
NCI-H226 = test system: NCI-H226
M14 = test system: M14
HT-29 = test system: HT-29
COLO 205 = test system: COLO 205
OVCAR-4 = test system: OVCAR-4
MDA-N = test system: MDA-N

In the case of `O=Cc1coc2ccccc2c1=O`, the GI50 (IGROV-1) is reported as 15.7 µM (inactive), the GI50 (CAKI-1) is reported as 19.2 µM (inactive) and the GI50 (SN12C) is reported as 19.5 µM (inactive). For the same compound, the GI50 (SW-620) was 18.5 µM (inactive), the GI50 (U-251) was 21.3 µM (inactive) and the GI50 (SF-268) was 20.8 µM (inactive). For the same compound, the GI50 (EKVX) was 22.4 µM (inactive), the GI50 (LOX IMVI) was 16.9 µM (inactive) and the GI50 (HL-60) was 18.6 µM (inactive). For the same compound, the GI50 (K562) was 19.3 µM (inactive), the GI50 (OVCAR-3) was 32.1 µM (inactive) and the GI50 (OVCAR-5) was 23.1 µM (inactive). For the same compound, the GI50 (MCF7) was 19.2 µM (inactive), the GI50 (OVCAR-8) was 15 µM (inactive) and the GI50 (HCT-116) was 16.5 µM (inactive). For the same compound, the GI50 (A549) was 25.1 µM (inactive), the GI50 (Hs-578T) was 18.2 µM (inactive) and the GI50 (BT-549) was 15.6 µM (inactive). For the same compound, the GI50 (RXF 393) was 18 µM (inactive), the GI50 (786-0) was 18.1 µM (inactive) and the GI50 (SF-295) was 17.9 µM (inactive). The GI50 (Malme-3M) was 9.68 µM (inactive), the GI50 (SNB-19) was 24.6 µM (inactive) and the GI50 (PC-3) was 18.8 µM (inactive). For the same compound, the GI50 (HCT-15) was 14.3 µM, the GI50 (KM12) was 24.2 µM (inactive) and the GI50 (MDA-MB-231) was 18.5 µM (inactive). For the same compound, the GI50 (CCRF-CEM) was 18.2 µM (inactive), the GI50 (DU-145) was 40.6 µM (inactive) and the GI50 (UACC-62) was 19.9 µM (inactive). The GI50 (NCI-H460) was 20.9 µM (inactive), the GI50 (NCI-H522) was 19.1 µM (inactive) and the GI50 (UO-31) was 11.9 µM (inactive). The GI50 (SK-OV-3) was 20 µM (inactive), the GI50 (A498) was 44.2 µM (inactive) and the GI50 (NCI-H23) was 21.9 µM (inactive). The GI50 (TK-10) was 17.7 µM (inactive), the GI50 (SNB-75) was < 0.01 µM (active) and the GI50 (RPMI-8226) was 15.3 µM (inactive). The GI50 (SF-539) was 16.1 µM (inactive), the GI50 (NCI/ADR-RES) was 16 µM (inactive) and the GI50 (ACHN) was 19.5 µM (inactive). The GI50 (SK-MEL-5) was 17.8 µM (inactive), the GI50 (UACC-257) was 18.7 µM (inactive) and the GI50 (HOP-62) was 19.1 µM (inactive). The GI50 (T47D) was 48.1 µM (inactive), the GI50 (MOLT-4) was 24.9 µM (inactive) and the GI50 (MDA-MB-435) was 18.5 µM (inactive). For the same compound, the GI50 (NCI-H226) was 37.7 µM (inactive), the GI50 (M14) was 17.9 µM (inactive) and the GI50 (HT-29) was 20.7 µM (inactive). The GI50 (COLO 205) was 16.1 µM (inactive), the GI50 (OVCAR-4) was 13.8 µM (inactive) and the GI50 (MDA-N) was 20.5 µM (inactive).
